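Cultured in 96-well plates, cells were exposed to test compound for 48 hours across five concentrations. TGI is the concentration that stops growth completely.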
Assays:
Assay in all cases: DTP human tumour cell line panel, 48 h
786-0 renal = system: 786-0 renal
A498 renal = system: A498 renal
A549 NSCLC = system: A549 NSCLC
ACHN renal = system: ACHN renal
BT-549 breast = system: BT-549 breast
CAKI-1 renal = system: CAKI-1 renal
COLO 205 colon = system: COLO 205 colon
DU-145 prostate = system: DU-145 prostate
EKVX NSCLC = system: EKVX NSCLC
HCC-2998 colon = system: HCC-2998 colon
HCT-116 colon = system: HCT-116 colon
HCT-15 colon = system: HCT-15 colon
HOP-62 NSCLC = system: HOP-62 NSCLC
HT29 colon = system: HT29 colon
IGROV1 ovarian = system: IGROV1 ovarian
K-562 leukemia = system: K-562 leukemia
KM12 colon = system: KM12 colon
LOX IMVI melanoma = system: LOX IMVI melanoma
M14 melanoma = system: M14 melanoma
MALME-3M melanoma = system: MALME-3M melanoma
MCF7 breast = system: MCF7 breast
MDA-MB-231 breast = system: MDA-MB-231 breast
MDA-MB-435 = system: MDA-MB-435
MOLT-4 leukemia = system: MOLT-4 leukemia
NCI-H226 lung = system: NCI-H226 lung
NCI-H23 lung = system: NCI-H23 lung
NCI-H460 lung = system: NCI-H460 lung
NCI/ADR-RES ovarian = system: NCI/ADR-RES ovarian
OVCAR-3 ovarian = system: OVCAR-3 ovarian
OVCAR-4 ovarian = system: OVCAR-4 ovarian
OVCAR-5 ovarian = system: OVCAR-5 ovarian
OVCAR-8 ovarian = system: OVCAR-8 ovarian
PC-3 prostate = system: PC-3 prostate
RPMI-8226 leukemia = system: RPMI-8226 leukemia
RXF 393 renal = system: RXF 393 renal
SF-268 CNS = system: SF-268 CNS
SF-295 CNS = system: SF-295 CNS
SF-539 CNS = system: SF-539 CNS
SK-MEL-2 melanoma = system: SK-MEL-2 melanoma
SK-MEL-28 melanoma = system: SK-MEL-28 melanoma
SK-MEL-5 melanoma = system: SK-MEL-5 melanoma
SK-OV-3 ovarian = system: SK-OV-3 ovarian
SNB-19 CNS = system: SNB-19 CNS
SNB-75 CNS = system: SNB-75 CNS
SR leukemia = system: SR leukemia
SW-620 colon = system: SW-620 colon
T-47D breast = system: T-47D breast
TK-10 renal = system: TK-10 renal
U251 CNS = system: U251 CNS
UACC-257 melanoma = system: UACC-257 melanoma
UACC-62 melanoma = system: UACC-62 melanoma
UO-31 renal = system: UO-31 renal

CC1(C)C2CCC1(C)[C@H](O)[C@H]2Nc1cc(C(F)(F)F)cc(C(F)(F)F)c1 (some centres not stated)
TGI (786-0 renal): 12.2 µM | TGI (A498 renal): > 100 µM | TGI (A549 NSCLC): 13.6 µM | TGI (ACHN renal): > 100 µM | TGI (BT-549 breast): 8.31 µM | TGI (CAKI-1 renal): 13.1 µM | TGI (COLO 205 colon): 3.28 µM | TGI (DU-145 prostate): 12.1 µM | TGI (EKVX NSCLC): 12.5 µM | TGI (HCC-2998 colon): 9.8 µM | TGI (HCT-116 colon): 8.17 µM | TGI (HCT-15 colon): 12.6 µM | TGI (HOP-62 NSCLC): 17.7 µM | TGI (HT29 colon): 12.5 µM | TGI (IGROV1 ovarian): 11.5 µM | TGI (K-562 leukemia): 7.72 µM | TGI (KM12 colon): 10.7 µM | TGI (LOX IMVI melanoma): 10.4 µM | TGI (M14 melanoma): 15.6 µM | TGI (MALME-3M melanoma): 9.12 µM | TGI (MCF7 breast): > 100 µM | TGI (MDA-MB-231 breast): 15.3 µM | TGI (MDA-MB-435): 11.6 µM | TGI (MOLT-4 leukemia): 5.91 µM | TGI (NCI-H226 lung): 19.4 µM | TGI (NCI-H23 lung): 6.98 µM | TGI (NCI-H460 lung): 12 µM | TGI (NCI/ADR-RES ovarian): 7.13 µM | TGI (OVCAR-3 ovarian): 6.01 µM | TGI (OVCAR-4 ovarian): 17.3 µM | TGI (OVCAR-5 ovarian): 21.1 µM | TGI (OVCAR-8 ovarian): 9.26 µM | TGI (PC-3 prostate): 8.42 µM | TGI (RPMI-8226 leukemia): 7.11 µM | TGI (RXF 393 renal): 9.03 µM | TGI (SF-268 CNS): 8.02 µM | TGI (SF-295 CNS): 7.27 µM | TGI (SF-539 CNS): 15.6 µM | TGI (SK-MEL-2 melanoma): 5.45 µM | TGI (SK-MEL-28 melanoma): 7.14 µM | TGI (SK-MEL-5 melanoma): 17.6 µM | TGI (SK-OV-3 ovarian): 13.8 µM | TGI (SNB-19 CNS): 16.2 µM | TGI (SNB-75 CNS): 3.56 µM | TGI (SR leukemia): 9.23 µM | TGI (SW-620 colon): 12 µM | TGI (T-47D breast): 6.99 µM | TGI (TK-10 renal): 9.89 µM | TGI (U251 CNS): 14.2 µM | TGI (UACC-257 melanoma): 12.9 µM | TGI (UACC-62 melanoma): > 100 µM | TGI (UO-31 renal): 12.7 µM
